Reference: patent US10544100B2, “Autophagy inhibitors” (priority 2011, dated 2020)

Assays:
[1] = tested on: A375 Human melanoma tumor cells; assay: Human tumor xenograft study; assay type: in vivo; settings: A375 xenograft in female mice, oral, daily for 21 days; after 25 days
Method: Female mice were inoculated subcutaneously in the right flank with 0.1 ml of a 50% RPMI/50% Matrigel™ (BD Biosciences, Bedford, Mass.) mixture containing a suspension of A375 Human melanoma tumor cells (approximately 5×10^6 cells/mouse).
When tumor reached approximately 130 mg, mice were randomized into treatment groups. Body weights were recorded when the mice were randomized and were taken twice per week (on Study Days 3 and 7 for each cycle) thereafter in conjunction with tumor measurements. Treatment began on the day of randomization. Example 10 was delivered orally in a vehicle consisting of 5% DMA, 10% propylene glycol, 20% PEG 400, and 65% sterile water. Example 10 was administered daily for 21 days.

[2] = tested on: PLX-4032 resistant melanoma cell lines UACC1093 and UACC647; assay: Combination interaction tumor cell viability (ATP luminescence), 72 hours; assay type: cell-based
Method: (§1) Tumor cell lines (H292, HCT116, A375, HCC1569, A498, N87, UACC1093, and UACC647) were cultured in RPMI 1640 supplemented with 5% fetal bovine serum and housed in a 5% CO2 Incubator at 37° C.
(§2) For combination interaction experiments, cells were plated on a 96 well microplate and allowed 24 hours to adhere. Drugs were administered to the drug plate by the following: compound stock solutions (20 mM) or combination agent stock solutions (20 mM) were added to a drug plate where a 1:10 dilution was performed. Following the dilutions, 2 μl of each VT-062 and standard agent was transferred to the corresponding wells in the cell-containing 96-well plate with 196 μl of growth media. The compound and combination agent was concurrently tested over a range of 0.1 pM-100 μM for 72 hours. Following 72 hours of continuous exposure cell viability was determined by measuring the ATP activity using a commercially available cell viability assay kit. Luminescence intensity was used to relative drug activity compared to control wells and used to graphically determine the IC50 of combination.

[3] = tested on: Tumor cell lines (H292, HCT116, A375, HCC1569, A498, N87, UACC1093, and UACC647); assay: Single agent tumor cell viability (ATP luminescence), 72 hours; assay type: cell-based; settings: in the cell lines tested (FIGS. 1A, 1B, and C)
Method: as §1
as §2, with “single agent IC50 determination,” for “combination interaction experiments,”, “(10” for “(20 mM) or combination agent stock solutions (20”, “test compound” for “each VT-062 and standard agent”, “198” for “196”, “compounds were” for “compound and combination agent was concurrently”, “IC50.” for “IC50 of combination.”

lysosome in U2OS cells = assay: Inhibitory lysosomal mechanism of action (LysoTracker Red and LAMP1 staining); assay type: cell-based; settings: for LAMP1 staining / LysoTracker Red staining: at 304 for 3 hours; for LysoTracker Red staining: LysoTracker Red for the final hour; for intensity of LysoTracker Red staining (image analysis, line scan): indicating an increase in pH
Method: To determine deacidification of the lysosome, cells were incubated with LysoTracker Red, a dye that localizes to the lysosome based on the low acidity of the compartment. If the lysosome is no longer acidic, there is a loss in the amount of LysoTracker Red staining. Lysosomal inhibition was further determined by immunofluorescence of lysosome-associated membrane protein-1 (LAMP1). If the lysosome is inhibited, lysosomal turnover should decrease and an increase in the amount of LAMP1 staining would be apparent. U2OS cells were treated with Example 7 or Example 26 at […] for 3 hours, supplementing LysoTracker Red for the final hour.
Using image analysis software, the mean intensities of both the LAMP1 and LysoTracker Red staining were measured and represent altered intensity level between treatments on intensity plots. Individual points were measured using a line scan on the image analysis software, which measures the intensity across the path of a line at any given point. Not only does the presence of LAMP1 positive membranes increases, but the intensity in LAMP1 staining also increases with Example 7 and Example 26 treatment. The inverse relationship in intensity holds true for LysoTracker Red staining.

SMILES	tumor growth inhibition (tumor weight) [1]	increase in tumor growth inhibition in combination than Example 10 alone ([2]; in combination with PLX-4032, UACC1093 and UACC647 (FIGS. 4A and 4C))	increase in tumor growth inhibition in combination than Example 10 alone ([2]; in combination with Temozelomide, UACC1093 and UACC647 (FIGS. 4B and 4D))	tumor cell growth inhibition [3]	intensity in LAMP1 staining (image analysis, line scan) (lysosome in U2OS cells)	LAMP1 staining (lysosome in U2OS cells)	LysoTracker Red staining (lysosome in U2OS cells)	intensity of LysoTracker Red staining (image analysis, line scan) (lysosome in U2OS cells)
COc1ccc2nc3cc(Cl)ccc3c(NCCCCN(C)CC3CC3)c2c1 [Example 10, N^1-(6-Chloro-2-methoxyacridin-9-yl)-N^4-(cyclopropylmethyl)-N^4-methylbutane-1,4-diamine]	greater than 50%	2.6-3.25%	7-30%	more than 75%	–	–	–	–
CCN1CCC(Nc2c3c(nc4cc(Cl)ccc24)CCCC3)CC1 [Example 26, 6-Chloro-N-(1-ethylpiperidin-4-yl)-1,2,3,4-tetrahydroacridin-9-amine]	–	–	–	–	increases	substantial increases in LAMP1 staining	essentially ablated LysoTracker Red staining	less intense LysoTracker Red staining
COc1ccc2nc3cc(Cl)ccc3c(NCCCCN3CCN(C)CC3)c2c1 [Example 7, 6-Chloro-2-methoxy-N-(4-(4-methylpiperazin-1-yl)butyl)acridin-9-amine]	–	–	–	–	increases	substantial increases in LAMP1 staining	essentially ablated LysoTracker Red staining	less intense LysoTracker Red staining
